Source: patent US11192865B2, “Benzosulfonyl compounds” (Vivace Therapeutics, Inc., priority 2017, dated 2021)

tested on: 8XTBD luciferase reporter; assay: YAP Reporter Assay; format: cell-based; settings: Homo sapiens, HEK-293T; HEK293T cells stably transfected with 8XTBD luciferase reporter and pRLTK; 24-hr incubation; starting from 3 μM, 1:3 dilution, 10 points; read-out: Firefly Luciferase IC50
Procedure: HEK293T cells stably transfected with 8XTBD luciferase reporter and pRLTK in 384-well plates were treated with the test compounds, starting from 3 μM (final concentration in assay plate), 1:3 dilution, and 10 points in quadruplicates. Post 24-hr incubation with compounds at 37° C. and 5% CO2, cells were lysed and 8XTBD-driven firefly luciferase and control TK-driven renilla luciferase activities were measured using Promega Dual-Luciferase Reporter Assay System.
Reagents: The reagents used for this study are: DMEM: Invitrogen #11960077, Dual-Glo Luciferase Assay System: Promega-E2980, Puromycin Dihydrochloride: Invitrogen-A1113803, 384-well plate: PerkinElmer-6007480, L-GLUTAMINE: Invitrogen-25030164, Hygromycin B: Invitrogen-10687010, and Penicillin-Streptomycin: Merk-TMS-AB2-C
Media: The media used for this assay were: Culture Medium: DMEM+1 ug/mL puromycin+200 ug/mL hygromycin (with 10% FBS+1 mM L-glutamine); and Assay Medium: DMEM (with 10% FBS+1 mM L-glutamine+1×P/S).
Cell Plating: The appropriate media was warmed at 37° C. by water bath: Culture Medium, Assay Medium, 1* D-PBS, 0.05% trypsin-EDTA. The cells were trypsinized after removing all media, then washed with 1* sterile D-PBS and then with 2 ml 0.05% trypsin-EDTA. The cells were then incubated at RT for one minute. Then 10 ml/75 cm2 flask Assay Medium was added to each flask. Using a 10 ml pipette, the cells were then gently resuspended in the media, until the clumps completely disappeared. The cells were then transferred into 50 ml centrifuge tubes and were centrifuged at 800 rpm for 5 mins. The medium was removed and the cells were resuspended with Assay Medium. An aliquot of cells was used to count the cell density (cells/ml). The cell suspension was then diluted with Assay Medium to a concentration of 6×10^4 cells/ml. 50 ul cells suspension was then plated to 384-well plate (PerkinElmer-6007480), 3×10^3 cells/well and the cells were incubated in an incubator at 37° C., 5% CO2.
Compound Treatment: In the afternoon (incubation of the plate with 3-4 hrs), the test compounds were added by Echo, starting from 3 uM (final concentration in the assay plate), 1:3 dilution, 10 points, quadruplicates. The plate was placed at 37° C., 5% CO2 incubator for 24 hrs.
Detection: The Dual-Glo Luciferase Reagent was prepared by transferring the contents of one bottle of Dual-Glo Luciferase Buffer to one bottle of Dual-Glo Luciferase Substrate to create the Dual-Glo Luciferase Reagent. Mixing was performed by inversion until the substrate was thoroughly dissolved. After mixing, the reagent was aliquoted into 15 ml tubes. In the afternoon (24 hrs post compound treatment), the DMEM+ medium in the 384 well plates were aspirated by Microplate Washer.
Measuring firefly luciferase activity: 20 ul Dual-Glo Luciferase Reagent was added to the 384-well plates. The plates were protected from light to prevent interference with the assay. The plates were shaken for 1 min followed centrifuging plates at 1000 rpm for 30 seconds. After waiting at least 10 minutes, the firefly luminescence was measured by Envision.
Measuring renilla luciferase activity: 20 ul Stop-Glo Reagent was added to the 384-well plates. The plates were shaken for 1 min and then centrifuged at 1000 rpm for 30 seconds. After waiting at least 10 minutes, the renilla luminescence was measured by Envision.
Compound IC50 and maximum inhibition on the firefly luciferase and renilla luciferase activities were reported separately.

Row | Structure (SMILES) | IC50 [nM]
1 | CNS(=O)(=O)c1ccc(NC2CCCCC2)c(-c2nnn(C3CCNC3)n2)c1 (stereo not shown) [Compound 35, 4-(cyclohexylamino)-N-methyl-3-(2-(pyrrolidin-3-yl)-2H-tetrazol-5-yl)benzenesulfonamide] | > 3000
2 | CNS(=O)(=O)c1ccc(NC2CCCCC2)c(-c2nnn(C3CCN(c4ccccc4)C3)n2)c1 (stereo not shown) [Compound 37, 4-(cyclohexylamino)-N-methyl-3-(2-(1-phenylpyrrolidin-3-yl)-2H-tetrazol-5-yl)benzenesulfonamide] | > 3000
3 | CNS(=O)(=O)c1ccc(NC2CCCCC2)c(-c2nnn(C3CCN(c4ccccc4)CC3)n2)c1 [Compound 38, 4-(cyclohexylamino)-N-methyl-3-(2-(1-phenylpiperidin-4-yl)-2H-tetrazol-5-yl)benzenesulfonamide] | > 3000
4 | CNS(=O)(=O)c1ccc(NC2CCCCC2)c(-c2nnn(C3CCN(S(C)(=O)=O)C3)n2)c1 (stereo not shown) [Compound 43, 4-(cyclohexylamino)-N-methyl-3-(2-(1-(methylsulfonyl)pyrrolidin-3-yl)-2H-tetrazol-5-yl)benzenesulfonamide] | > 3000
5 | CNS(=O)(=O)c1ccc(NC2CCCCC2)c(-c2nnn(C3CCN(C(C)C)CC3)n2)c1 [Compound 46, 4-(cyclohexylamino)-3-(2-(1-isopropylpiperidin-4-yl)-2H-tetrazol-5-yl)-N-methylbenzenesulfonamide] | > 3000
6 | CNS(=O)(=O)c1ccc(NC2CCCCC2)c(-c2nnn(C3CCN(C(=O)OC(C)C)CC3)n2)c1 [Compound 47, isopropyl 4-(5-(2-(cyclohexylamino)-5-(N-methylsulfamoyl)phenyl)-2H-tetrazol-2-yl)piperidine-1-carboxylate] | > 3000
7 | CNS(=O)(=O)c1ccc(NC2CCCCC2)c(-c2nnn(C3CN(S(C)(=O)=O)C3)n2)c1 [Compound 50, 4-(cyclohexylamino)-N-methyl-3-(2-(1-(methylsulfonyl)azetidin-3-yl)-2H-tetrazol-5-yl)benzenesulfonamide] | > 3000
8 | CNS(=O)(=O)c1ccc(NC2CCCCC2)c(-c2nnn(C3CN(c4ccccc4)C3)n2)c1 [Compound 51, 4-(cyclohexylamino)-N-methyl-3-(2-(1-phenylazetidin-3-yl)-2H-tetrazol-5-yl)benzenesulfonamide] | > 3000
9 | CNS(=O)(=O)c1ccc(NC2CCCCC2)c(-c2nnn(C3CNC3)n2)c1 [Compound 54, 3-(2-(azetidin-3-yl)-2H-tetrazol-5-yl)-4-(cyclohexylamino)-N-methylbenzenesulfonamide] | > 3000
10 | CNS(=O)(=O)c1ccc(NC2CCCCC2)c(-c2cncnc2)c1 [Compound 55, 4-(cyclohexylamino)-N-methyl-3-(pyrimidin-5-yl)benzenesulfonamide] | > 3000
11 | CNS(=O)(=O)c1ccc(NC2CCCCC2)c(-c2nnnn2C2CCCN(C(=O)OC(C)(C)C)C2)c1 (stereo not shown) [Compound 60, tert-butyl 3-(5-(2-(cyclohexylamino)-5-(N-methylsulfamoyl)phenyl)-1H-tetrazol-1-yl)piperidine-1-carboxylate] | > 3000
12 | CNS(=O)(=O)c1ccc(NC2CCCCC2)c(-c2nnn(C3CCCN(C(C)C)C3)n2)c1 (stereo not shown) [Compound 61, 4-(cyclohexylamino)-3-(2-(1-isopropylpiperidin-3-yl)-2H-tetrazol-5-yl)-N-methylbenzenesulfonamide] | > 3000

Second part, the compound after the results:

Row | IC50 [nM] | Structure (SMILES)
13 | > 3000 | CNS(=O)(=O)c1ccc(NC2CCCCC2)c(-c2nnn(-c3ccccc3)n2)c1 [Compound 34, 4-(cyclohexylamino)-N-methyl-3-(2-phenyl-2H-tetrazol-5-yl)benzenesulfonamide]
14 | 1000 to 3000 | CNS(=O)(=O)c1ccc(NC2CCCCC2)c(-c2nnn(C3CCN(C(C)C)C3)n2)c1 (stereo not shown) [Compound 36, 4-(cyclohexylamino)-3-(2-(1-isopropylpyrrolidin-3-yl)-2H-tetrazol-5-yl)-N-methylbenzenesulfonamide]
15 | 100 to 1000 | CNS(=O)(=O)c1ccc(NC2CCCCC2)c(-c2nnn(CC(F)(F)F)n2)c1 [Compound 39, 4-(cyclohexylamino)-N-methyl-3-(2-(2,2,2-trifluoroethyl)-2H-tetrazol-5-yl)benzenesulfonamide]
16 | ≤ 100 | CNS(=O)(=O)c1ccc(NC2CCCCC2)c(-c2nnn(CCF)n2)c1 [Compound 40, 4-(cyclohexylamino)-3-(2-(2-fluoroethyl)-2H-tetrazol-5-yl)-N-methylbenzenesulfonamide]
17 | 100 to 1000 | CNS(=O)(=O)c1ccc(NC2CCCCC2)c(-c2nnn(Cc3ccc(F)cc3)n2)c1 [Compound 41, 4-(cyclohexylamino)-3-(2-(4-fluorobenzyl)-2H-tetrazol-5-yl)-N-methylbenzenesulfonamide]
18 | 100 to 1000 | CNS(=O)(=O)c1ccc(NC2CCCCC2)c(-c2nnn(C3CCN(C(C)=O)C3)n2)c1 (stereo not shown) [Compound 42, 3-(2-(1-acetylpyrrolidin-3-yl)-2H-tetrazol-5-yl)-4-(cyclohexylamino)-N-methylbenzenesulfonamide]
19 | 100 to 1000 | CNS(=O)(=O)c1ccc(NC2CCCCC2)c(-c2nnn(CCO)n2)c1 [Compound 44, 4-(cyclohexylamino)-3-(2-(2-hydroxyethyl)-2H-tetrazol-5-yl)-N-methylbenzenesulfonamide]
20 | ≤ 100 | CNS(=O)(=O)c1ccc(NC2CCCCC2)c(-c2nnn(-c3cccnc3)n2)c1 [Compound 45, 4-(cyclohexylamino)-N-methyl-3-(2-(pyridin-3-yl)-2H-tetrazol-5-yl)benzenesulfonamide]
21 | ≤ 100 | CNS(=O)(=O)c1ccc(NC2CCCCC2)c(-c2noc(C)n2)c1 [Compound 48, 4-(cyclohexylamino)-N-methyl-3-(5-methyl-1,2,4-oxadiazol-3-yl)benzene sulfonamide]
22 | 100 to 1000 | CNS(=O)(=O)c1ccc(NC2CCCCC2)c(-c2nnn(C3CN(C(C)=O)C3)n2)c1 [Compound 49, 3-(2-(1-acetylazetidin-3-yl)-2H-tetrazol-5-yl)-4-(cyclohexylamino)-N-methylbenzenesulfonamide]
23 | 100 to 1000 | CNS(=O)(=O)c1ccc(NC2CCCCC2)c(-c2nnn(C3CN(C(C)C)C3)n2)c1 [Compound 52, 4-(cyclohexylamino)-3-(2-(1-isopropylazetidin-3-yl)-2H-tetrazol-5-yl)-N-methylbenzenesulfonamide]
24 | 100 to 1000 | CNS(=O)(=O)c1ccc(NC2CCCCC2)c(-c2nnn(C3CCCN(C(C)=O)C3)n2)c1 (stereo not shown) [Compound 53, 3-(2-(1-acetylpiperidin-3-yl)-2H-tetrazol-5-yl)-4-(cyclohexylamino)-N-methylbenzenesulfonamide]
25 | ≤ 100 | CNS(=O)(=O)c1ccc(NC2CCCCC2)c(-c2ncccn2)c1 [Compound 56, 4-(cyclohexylamino)-N-methyl-3-(pyrimidin-2-yl)benzenesulfonamide]
26 | ≤ 100 | CNS(=O)(=O)c1ccc(NC2CCCCC2)c(-c2ccn(C)n2)c1 [Compound 57, 4-(cyclohexylamino)-N-methyl-3-(1-methyl-1H-pyrazol-3-yl)benzenesulfonamide]
27 | ≤ 100 | CNS(=O)(=O)c1ccc(NC2CCCCC2)c(-c2cn(C)nn2)c1 [Compound 58, 4-(cyclohexylamino)-N-methyl-3-(1-methyl-1H-1,2,3-triazol-4-yl)benzenesulfonamide]
28 | 100 to 1000 | CNS(=O)(=O)c1ccc(NC2CCCCC2)c(-c2nnn(C3CCCN(C(=O)OC(C)(C)C)C3)n2)c1 (stereo not shown) [Compound 59, tert-butyl 3-(5-(2-(cyclohexylamino)-5-(N-methylsulfamoyl)phenyl)-2H-tetrazol-2-yl)piperidine-1-carboxylate]
